Laboratory results from ChEMBL document CHEMBL3600333, “Optimization of a Stable Linker Involved DEVD Peptide-Doxorubicin Conjugate That Is Activated upon Radiation-Induced Caspase-3-Mediated Apoptosis” (J Med Chem, 2015).
pIC50: −log10 of the molar value. Values belong to the molecule of their own block, whether it stands above or below them. The source made the active and inactive calls. No cut-off for these calls is given here. Numbered stars: 1 amine (or outer) side, 2 acyl side, 3 side chain; on linkers, the order of the positions; unused ones are H or OH. Square brackets hold non-standard residues; d marks the D form. Peptide text beside a SMILES is read from it. * marks the point of attachment. Doxorubicin(3'-N) = COc1cccc2c1C(=O)c1c(O)c3c(c(O)c1C2=O)C[C@@](O)(C(=O)CO)C[C@@H]3O[C@H]1C[C@H](N*)[C@H](O)[C@H](C)O1; Mal(S(CH2)2NH)(CH2)5CO = O=C1CC(SCCN[*:1])C(=O)N1CCCCCC(=O)[*:2]

Columns and labels:
[1] = Octanol-water partition coefficient, log P of the compound at 100 ug after 3 hrs by shake-flask method; type: physicochemical
[2] = Drug uptake in nucleus of human MDA-MB-231 cells at 10 uM after 18 hrs by DAPI staining-based confocal laser scanning microscopic analysis; type: ADME, cell-based; conditions: mda-mb-231, 18 h
[3] = Drug uptake in cytoplasm of human MDA-MB-231 cells at 10 uM after 18 hrs by DAPI staining-based confocal laser scanning microscopic analysis; type: ADME, cell-based; conditions: mda-mb-231, 18 h
[4] = test system: MDA-MB-231; test: Cytotoxicity against human MDA-MB-231 cells assessed as cell viability after 48 hrs by MTT assay; type: functional, cell-based; conditions: for pIC50: MDA-MB-231, 48 h
[5] = Retention time of the compound treated with (6S,9S,12S,15S,18S)-1,6-diamino-12-(2-carboxyethyl)-9-(carboxymethyl)-18-(2-(1-(6-((2S,3S,4S,6R)-3-hydroxy-2-methyl-6-((1S,3S)-3,5,12-trihydroxy-3-(2-hydroxyacetyl)-10-methoxy-6,11-dioxo-1,2,3,4,6,11-hexahydrotetracen-1-yloxy)tetrahydro-2H-pyran-4-ylamino)-6-oxohexyl)-2,5-dioxopyrrolidin-3-ylthio)ethylcarbamoyl)-1-imino-15-isopropyl-7,10,13,16-tetraoxo-2,8,11,14,17-pentaazaicosan-20-oic acid at 100 uM by HPLC analysis in presence of recombinant human caspase-3; type: physicochemical
[6] = test system: MDA-MB-231; test: Induction of apoptosis in human MDA-MB-231 cells assessed as downregulation of procaspase-3 expression at 1 to 100 uM after 48 hrs by Western blot analysis; type: functional, cell-based
[7] = test system: MDA-MB-231; test: Induction of apoptosis in human MDA-MB-231 cells assessed as upregulation of cleaved caspase-3 expression after 48 hrs by Western blot analysis; type: functional, cell-based
[8] = test system: Mus musculus; test: Toxicity in Balb-c/nu mouse allografted with mouse SCC7 cells assessed as decrease in body weight at 5 mg/kg molar equivalent of doxorubicin, iv administered daily for 7 days with 10 Gy X-ray treatment on first day of drug administration measured until day 14; type: organism-based, SCC-7; conditions: in vivo, 168 h
[9] = test system: Mus musculus; test: Toxicity in Balb-c/nu mouse allografted with mouse SCC7 cells assessed as mortality at 5 mg/kg molar equivalent of doxorubicin, iv administered daily for 7 days measured until day 14; type: organism-based, SCC-7; conditions: in vivo, 168 h
[10] = test system: MDA-MB-231; test: Cytotoxicity against human MDA-MB-231 cells assessed as decrease in cell viability at 5 uM with 5 Gy linear X-ray treatment after 24 hrs by MTT assay; type: functional, cell-based
[11] = Prodrug conversion assessed as 6-(3-(2-aminoethylthio)-2,5-dioxopyrrolidin-1-yl)-N-((2S,3S,4S,6R)-3-hydroxy-2-methyl-6-((1S,3S)-3,5,12-trihydroxy-3-(2-hydroxyacetyl)-10-methoxy-6,11-dioxo-1,2,3,4,6,11-hexahydrotetracen-1-yloxy)tetrahydro-2H-pyran-4-yl)hexanamide formation at 100 uM after 60 mins by HPLC analysis in absence of recombinant human caspase-3; type: physicochemical; conditions: 1 h
[12] = test system: MDA-MB-231; test: Induction of apoptosis in human MDA-MB-231 cells assessed as upregulation of cleaved caspase-3 expression preincubated with recombinant human caspase-3 measured after 48 hrs by Western blot analysis; type: functional, cell-based
[13] = Retention time of the compound at 100 uM after 60 mins by HPLC analysis in absence of recombinant human caspase-3; type: physicochemical; conditions: 1 h
[14] = test system: MDA-MB-231; test: Cytotoxicity against human MDA-MB-231 cells assessed as decrease in cell viability at 5 uM with 5 Gy linear X-ray treatment measured at 48 hrs by MTT assay (reference value: 53%); type: functional
[15] = Antitumor activity against mouse SCC7 cells allografted in Balb-c/nu mouse assessed as tumor growth inhibition at 5 mg/kg molar equivalent of doxorubicin, iv administered daily for 7 days without X-ray treatment relative to control; type: functional, SCC-7
[16] = Drug uptake in nucleus of human MDA-MB-231 cells assessed as doxorubicin moiety level at 5 uM preincubated for 24 hrs followed by exposure to 5 Gy linear X-ray measured at 6 hrs by DAPI staining-based fluorescence microscopic analysis; type: ADME, cell-based; conditions: mda-mb-231, 6 h
[17] = test system: Mus musculus; test: Toxicity in Balb-c/nu mouse allografted with mouse SCC7 cells assessed as decrease in body weight at 5 mg/kg molar equivalent of doxorubicin, iv administered daily for 7 days without X-ray treatment measured until day 14; type: organism-based, SCC-7; conditions: in vivo, 168 h
[18] = test system: MDA-MB-231; test: Induction of apoptosis in human MDA-MB-231 cells assessed as upregulation of cleaved caspase-3 expression at 1 to 100 uM pretreated with X-ray measured after 24 to 72 hrs by Western blot analysis; type: functional, cell-based
[19] = Drug uptake in nucleus of human MDA-MB-231 cells assessed as doxorubicin moiety level at 100 uM using cyanine5.5-labeled compound after 1 hr by DAPI staining-based confocal laser scanning microscopic analysis in presence of recombinant human caspase-3; type: ADME, cell-based; conditions: mda-mb-231, 1 h
[20] = Drug uptake in cytoplasm of human MDA-MB-231 cells assessed as DEVD moiety level at 100 uM using cyanine5.5-labeled compound after 1 hr by DAPI staining-based confocal laser scanning microscopic analysis in presence of recombinant human caspase-3; type: ADME, cell-based; conditions: mda-mb-231, 1 h
[21] = Stability of the compound at 100 uM after 60 mins by HPLC analysis in absence of recombinant human caspase-3; type: physicochemical; conditions: 1 h
[22] = test system: MDA-MB-231; test: Cytotoxicity against human MDA-MB-231 cells assessed as cell viability at 0.1 to 100 uM after 48 hrs by MTT assay in presence of recombinant human caspase-3; type: functional, cell-based
[23] = test system: MDA-MB-231; test: Cytotoxicity against human MDA-MB-231 cells assessed as cell viability up to 10 uM after 48 hrs by MTT assay in absence of recombinant human caspase-3; type: functional, cell-based
[24] = test system: MDA-MB-231; test: Induction of apoptosis in human MDA-MB-231 cells assessed as change in cell morphology at 5 uM preincubated for 24 hrs followed by exposure to 5 Gy linear X-ray measured after 6 to 24 hrs by DAPI staining-based fluorescence microscopic analysis; type: functional
[25] = test system: MDA-MB-231; test: Induction of apoptosis in human MDA-MB-231 cells assessed as downregulation of procaspase-3 expression at 1 to 100 uM preincubated with recombinant human caspase-3 measured after 48 hrs by Western blot analysis; type: functional, cell-based
[26] = Drug uptake in nucleus of human MDA-MB-231 cells assessed as doxorubicin moiety level at 5 uM preincubated for 24 hrs followed by exposure to 5 Gy linear X-ray measured at 24 hrs by DAPI staining-based fluorescence microscopic analysis; type: ADME, cell-based; conditions: mda-mb-231, 24 h
[27] = Antitumor activity against mouse SCC7 cells allografted in Balb-c/nu mouse assessed as tumor growth inhibition at 5 mg/kg molar equivalent of doxorubicin, iv administered daily for 7 days with 10 Gy X-ray treatment on first day of drug administration (reference value: 54%); type: functional, SCC-7
[28] = test system: MDA-MB-231; test: Cytotoxicity against human MDA-MB-231 cells assessed as cell viability at 100 uM after 48 hrs by MTT assay in absence of recombinant human caspase-3; type: functional, cell-based
[29] = target: T1, Caspase-3 (Homo sapiens, UniProt P42574); test: Prodrug conversion assessed as recombinant human caspase-3-mediated compound 8 formation at 100 uM after 60 mins by HPLC analysis in presence of caspase-3 inhibitor Ac-DEVD-CHO; type: ADME; conditions: 1 h
T1 sequence (P42574 whole entry): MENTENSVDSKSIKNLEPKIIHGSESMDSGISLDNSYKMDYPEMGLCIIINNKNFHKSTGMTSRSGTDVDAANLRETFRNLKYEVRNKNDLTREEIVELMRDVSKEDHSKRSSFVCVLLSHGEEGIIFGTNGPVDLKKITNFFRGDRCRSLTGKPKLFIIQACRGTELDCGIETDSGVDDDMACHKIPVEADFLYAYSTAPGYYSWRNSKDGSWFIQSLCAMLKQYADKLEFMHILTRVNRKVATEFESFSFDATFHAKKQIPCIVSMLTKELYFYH

[30] = test system: MDA-MB-231; test: Induction of apoptosis in human MDA-MB-231 cells assessed as upregulation of cleaved caspase-3 expression up to 100 uM after 48 hrs by Western blot analysis; type: functional, cell-based
[31] = test system: Mus musculus; test: Toxicity in Balb-c/nu mouse allografted with mouse SCC7 cells assessed as mortality at 5 mg/kg, iv administered daily measured within 6 days; type: organism-based, SCC-7; conditions: in vivo, 144 h

SMILES: COc1cccc2c1C(=O)c1c(O)c3c(c(O)c1C2=O)C[C@@](O)(C(=O)CO)C[C@@H]3O[C@H]1C[C@H](NC(=O)CCCCCN2C(=O)CC(SCCNC(=O)[C@H](CC(=O)O)NC(=O)[C@@H](NC(=O)[C@H](CCC(=O)O)NC(=O)[C@H](CC(=O)O)NC(=O)[C@@H](N)CCCNC(=N)N)C(C)C)C2=O)[C@H](O)[C@H](C)O1 (some centres not stated) (H-RDEVD[Mal(S(CH2)2NH)(CH2)5CO]-{Doxorubicin(3'-N)})
Activity [8]: Non-toxic
Drug uptake [2]: Active
Activity [9]: Non-toxic
Activity [10]: inactive
Drug metabolism [11]: metabolite_notdetected
Activity [12]: Dose-dependent effect
Retention_time [13]: 21.4 min
Activity [14]: 75%
TGI [15]: 15%
Drug uptake [16]: Not Active
Activity [17]: Non-toxic
Activity [18]: Active
Drug uptake [19]: Active
Drug uptake [3]: Active
Drug uptake [20]: Active
Stability [21]: Unstable
Activity [22]: Active
Activity [23]: inactive
Activity [24]: Active
Activity [25]: Active
Drug uptake [26]: Active
TGI [27]: 79%
Activity [28]: Active
Drug metabolism [29]: metabolite_notdetected
Activity [30]: inactive

SMILES: COc1cccc2c1C(=O)c1c(O)c3c(c(O)c1C2=O)C[C@@](O)(C(=O)CO)C[C@@H]3O[C@H]1CC(NC(=O)C2CCC(CN3C(=O)CC(SC[C@H](N)C(=O)O)C3=O)CC2)[C@H](O)[C@H](C)O1 (single isomer, unassigned)
Drug uptake [2]: Not Active
Drug uptake [3]: Active

SMILES: COc1cccc2c1C(=O)c1c(O)c3c(c(O)c1C2=O)C[C@@](O)(C(=O)CO)C[C@@H]3O[C@H]1C[C@H](N)[C@H](O)[C@H](C)O1 [DOXORUBICIN]
Drug uptake [2]: Active
Activity [31]: Toxic

Now from value to molecule, other results behind:

logP at 3 h [1]: -0.022
Drug uptake [2]: Active
Drug uptake [3]: Active
SMILES: COc1cccc2c1C(=O)c1c(O)c3c(c(O)c1C2=O)C[C@@](O)(C(=O)CO)C[C@@H]3O[C@H]1C[C@H](NC(=O)C2CCC(CN3C(=O)CC(SCCN)C3=O)CC2)[C@H](O)[C@H](C)O1 (some centres not stated)
Activity [4]: Dose-dependent effect
pIC50 [4]: < 4.00

logP at 3 h [1]: -0.383
Drug uptake [2]: Active
Retention_time [5]: 20.6 min
SMILES: COc1cccc2c1C(=O)c1c(O)c3c(c(O)c1C2=O)C[C@@](O)(C(=O)CO)C[C@@H]3O[C@H]1C[C@H](NC(=O)CCCCCN2C(=O)CC(SCCN)C2=O)[C@H](O)[C@H](C)O1 (some centres not stated)
Activity [6]: Active
Activity [7]: Dose-dependent effect
pIC50 [4]: 5.34

logP at 3 h [1]: -0.121
Drug uptake [2]: Active
Drug uptake [3]: Active
SMILES: COc1cccc2c1C(=O)c1c(O)c3c(c(O)c1C2=O)C[C@@](O)(C(=O)CO)C[C@@H]3O[C@H]1C[C@H](NC(=O)c2cccc(N3C(=O)CC(SCCN)C3=O)c2)[C@H](O)[C@H](C)O1 (some centres not stated)
pIC50 [4]: < 4.00

logP at 3 h [1]: 0.313
Drug uptake [2]: Active
Drug uptake [3]: Active
SMILES: COc1cccc2c1C(=O)c1c(O)c3c(c(O)c1C2=O)C[C@@](O)(C(=O)CO)C[C@@H]3O[C@H]1C[C@H](NC(=O)CCCc2ccc(N3C(=O)CC(SCCN)C3=O)cc2)[C@H](O)[C@H](C)O1 (some centres not stated)
pIC50 [4]: < 4.00

logP at 3 h [1]: -1.04
Drug uptake [2]: Active
Drug uptake [3]: Active
SMILES: COc1cccc2c1C(=O)c1c(O)c3c(c(O)c1C2=O)C[C@@](O)(C(=O)CO)C[C@@H]3O[C@H]1C[C@H](NC(=O)CN2C(=O)CC(SCCN)C2=O)[C@H](O)[C@H](C)O1 (some centres not stated)
pIC50 [4]: < 4.00
